Results from publication PMC5290327, “SC83288 is a clinical development candidate for the treatment of severe malaria” (Nature Communications, 2017).

Tests used:
Test in all cases: KINOMEscan
Assay type in all cases: binding
Settings in all cases: read-out: Remaining enzyme activity
ABL1(Q252H) = molecular target: T1, ABL1(Q252H) (Homo sapiens, UniProt P00519, Q252H)
T1 construct: purchased Ambit (DiscoverX) KINOMEscan; Cerep
Description: (§1) The KINOMEscan was carried out by Ambit (San Diego, USA) according to a previously established protocol. The experiment was based on a competition binding assay that quantitatively measures the ability of a compound to compete with an immobilized, active-site directed ligand. The assay is performed by combining three components: DNA-tagged kinase; immobilized ligand; and a test compound. The ability of the test compound to compete with the immobilized ligand is measured via quantitative PCR of the DNA tag.
(§2) For most assays, kinase-tagged T7 phage strains were grown in parallel in 24-well blocks in an Escherichia coli host derived from the BL21 strain. E. coli were grown to log-phase and infected with T7 phage from a frozen stock and incubated with shaking at 32 °C until lysis (90–150 min). The lysates were centrifuged (6,000g) and filtered (0.2 μm) to remove cell debris. The remaining kinases were produced in HEK-293 cells (Sigma Aldrich, catalogue number: 85120602) and subsequently tagged with DNA for quantitative PCR detection. […] The liganded beads were blocked with excess biotin and washed with blocking buffer (SeaBlock (Pierce), 1% bovine serum albumin, 0.05% Tween 20 and 1 mM dithiothreitol) to remove unbound ligand and to reduce non-specific phage binding. […] SC81458 was prepared as 40x stock in 100% DMSO and directly diluted into the assay to a final concentration of 10 μM. All reactions were performed in polypropylene 384-well plates in a final volume of 0.04 ml. […] The kinase concentration in the eluates was measured by quantitative PCR.

ABL1(T315I) = molecular target: T2, ABL1(T315I) (Homo sapiens, UniProt P00519, T315I)
T2 construct: purchased Ambit (DiscoverX) KINOMEscan; Cerep
Description: as §1, §2

ABL1(Y253F) = molecular target: T3, ABL1(Y253F) (Homo sapiens, UniProt P00519, Y253F)
T3 construct: purchased Ambit (DiscoverX) KINOMEscan; Cerep
Description: as §1, §2

ACVR2b = molecular target: T4, ACVR2b (Homo sapiens, UniProt Q13705)
T4 construct: purchased Ambit (DiscoverX) KINOMEscan; Cerep
Description: as §1, §2

CDC2L2 = molecular target: T5, CDC2L2 (Homo sapiens, UniProt Q9UQ88)
T5 construct: purchased Ambit (DiscoverX) KINOMEscan; Cerep
Description: as §1, §2

CDK7 = molecular target: T6, CDK7 (Homo sapiens, UniProt P50613)
T6 construct: purchased Ambit (DiscoverX) KINOMEscan; Cerep
Description: as §1, §2

CSNK1e = molecular target: T7, CSNK1e (Homo sapiens, UniProt P49674)
T7 construct: purchased Ambit (DiscoverX) KINOMEscan; Cerep
Description: as §1, §2

CTK = molecular target: T8, CTK (Homo sapiens, UniProt P42679)
T8 construct: purchased Ambit (DiscoverX) KINOMEscan; Cerep
Description: as §1, §2

DAPK3 = molecular target: T9, DAPK3 (Homo sapiens, UniProt O43293)
T9 construct: purchased Ambit (DiscoverX) KINOMEscan; Cerep
Description: as §1, §2

DCAMKL3 = molecular target: T10, DCAMKL3 (Homo sapiens, UniProt Q9C098)
T10 construct: purchased Ambit (DiscoverX) KINOMEscan; Cerep
Description: as §1, §2

DYRK1a = molecular target: T11, DYRK1a (Homo sapiens, UniProt Q13627)
T11 construct: purchased Ambit (DiscoverX) KINOMEscan; Cerep
Description: as §1, §2

DYRK1b = molecular target: T12, DYRK1b (Homo sapiens, UniProt Q9Y463)
T12 construct: purchased Ambit (DiscoverX) KINOMEscan; Cerep
Description: as §1, §2

ERK3 = molecular target: T13, ERK3 (Homo sapiens, UniProt Q16659)
T13 construct: purchased Ambit (DiscoverX) KINOMEscan; Cerep
Description: as §1, §2

FGFR1 = molecular target: T14, FGFR1 (Homo sapiens, UniProt P11362)
T14 construct: purchased Ambit (DiscoverX) KINOMEscan; Cerep
Description: as §1, §2

INSRR = molecular target: T15, INSRR (Homo sapiens, UniProt P14616)
T15 construct: purchased Ambit (DiscoverX) KINOMEscan; Cerep
Description: as §1, §2

[1] = molecular target: T16, JAK3(JH1domain-catalytic) (Homo sapiens, UniProt P52333)
T16 construct: JAK3(JH1domain-catalytic); purchased Ambit (DiscoverX) KINOMEscan; Cerep
Description: as §1, §2

MET(Y1235D) = molecular target: T17, MET(Y1235D) (Homo sapiens, UniProt P08581, Y1235D)
T17 construct: purchased Ambit (DiscoverX) KINOMEscan; Cerep
Description: as §1, §2

MLK1 = molecular target: T18, MLK1 (Homo sapiens, UniProt P80192)
T18 construct: purchased Ambit (DiscoverX) KINOMEscan; Cerep
Description: as §1, §2

MST1 = molecular target: T19, MST1 (Homo sapiens, UniProt Q13043)
T19 construct: purchased Ambit (DiscoverX) KINOMEscan; Cerep
Description: as §1, §2

MYO3a = molecular target: T20, MYO3a (Homo sapiens, UniProt Q8NEV4)
T20 construct: purchased Ambit (DiscoverX) KINOMEscan; Cerep
Description: as §1, §2

NEK1 = molecular target: T21, NEK1 (Homo sapiens, UniProt Q96PY6)
T21 construct: purchased Ambit (DiscoverX) KINOMEscan; Cerep
Description: as §1, §2

NEK7 = molecular target: T22, NEK7 (Homo sapiens, UniProt Q8TDX7)
T22 construct: purchased Ambit (DiscoverX) KINOMEscan; Cerep
Description: as §1, §2

PDPK1 = molecular target: T23, PDPK1 (Homo sapiens, UniProt O15530)
T23 construct: purchased Ambit (DiscoverX) KINOMEscan; Cerep
Description: as §1, §2

PIK3C2b = molecular target: T24, PIK3C2b (Homo sapiens, UniProt O00750)
T24 construct: purchased Ambit (DiscoverX) KINOMEscan; Cerep
Description: as §1, §2

PIK3CA(M1043I) = molecular target: T25, PIK3CA(M1043I) (Homo sapiens, UniProt P42336, M1043I)
T25 construct: purchased Ambit (DiscoverX) KINOMEscan; Cerep
Description: as §1, §2

PYK2 = molecular target: T26, PYK2 (Homo sapiens, UniProt Q14289)
T26 construct: purchased Ambit (DiscoverX) KINOMEscan; Cerep
Description: as §1, §2

[2] = molecular target: T27, RPS6KA2(Kin.Dom.1-N-term) (Homo sapiens, UniProt Q15349)
T27 construct: RPS6KA2(Kin.Dom.1-N-term); purchased Ambit (DiscoverX) KINOMEscan; Cerep
Description: as §1, §2

SIK2 = molecular target: T28, SIK2 (Homo sapiens, UniProt Q9H0K1)
T28 construct: purchased Ambit (DiscoverX) KINOMEscan; Cerep
Description: as §1, §2

STK36 = molecular target: T29, STK36 (Homo sapiens, UniProt Q9NRP7)
T29 construct: purchased Ambit (DiscoverX) KINOMEscan; Cerep
Description: as §1, §2

TAOK3 = molecular target: T30, TAOK3 (Homo sapiens, UniProt Q9H2K8)
T30 construct: purchased Ambit (DiscoverX) KINOMEscan; Cerep
Description: as §1, §2

TGFBR1 = molecular target: T31, TGFBR1 (Homo sapiens, UniProt P36897)
T31 construct: purchased Ambit (DiscoverX) KINOMEscan; Cerep
Description: as §1, §2

VEGFR2 = molecular target: T32, VEGFR2 (Homo sapiens, UniProt P35968)
T32 construct: purchased Ambit (DiscoverX) KINOMEscan; Cerep
Description: as §1, §2

T21 sequence (Q96PY6 whole entry): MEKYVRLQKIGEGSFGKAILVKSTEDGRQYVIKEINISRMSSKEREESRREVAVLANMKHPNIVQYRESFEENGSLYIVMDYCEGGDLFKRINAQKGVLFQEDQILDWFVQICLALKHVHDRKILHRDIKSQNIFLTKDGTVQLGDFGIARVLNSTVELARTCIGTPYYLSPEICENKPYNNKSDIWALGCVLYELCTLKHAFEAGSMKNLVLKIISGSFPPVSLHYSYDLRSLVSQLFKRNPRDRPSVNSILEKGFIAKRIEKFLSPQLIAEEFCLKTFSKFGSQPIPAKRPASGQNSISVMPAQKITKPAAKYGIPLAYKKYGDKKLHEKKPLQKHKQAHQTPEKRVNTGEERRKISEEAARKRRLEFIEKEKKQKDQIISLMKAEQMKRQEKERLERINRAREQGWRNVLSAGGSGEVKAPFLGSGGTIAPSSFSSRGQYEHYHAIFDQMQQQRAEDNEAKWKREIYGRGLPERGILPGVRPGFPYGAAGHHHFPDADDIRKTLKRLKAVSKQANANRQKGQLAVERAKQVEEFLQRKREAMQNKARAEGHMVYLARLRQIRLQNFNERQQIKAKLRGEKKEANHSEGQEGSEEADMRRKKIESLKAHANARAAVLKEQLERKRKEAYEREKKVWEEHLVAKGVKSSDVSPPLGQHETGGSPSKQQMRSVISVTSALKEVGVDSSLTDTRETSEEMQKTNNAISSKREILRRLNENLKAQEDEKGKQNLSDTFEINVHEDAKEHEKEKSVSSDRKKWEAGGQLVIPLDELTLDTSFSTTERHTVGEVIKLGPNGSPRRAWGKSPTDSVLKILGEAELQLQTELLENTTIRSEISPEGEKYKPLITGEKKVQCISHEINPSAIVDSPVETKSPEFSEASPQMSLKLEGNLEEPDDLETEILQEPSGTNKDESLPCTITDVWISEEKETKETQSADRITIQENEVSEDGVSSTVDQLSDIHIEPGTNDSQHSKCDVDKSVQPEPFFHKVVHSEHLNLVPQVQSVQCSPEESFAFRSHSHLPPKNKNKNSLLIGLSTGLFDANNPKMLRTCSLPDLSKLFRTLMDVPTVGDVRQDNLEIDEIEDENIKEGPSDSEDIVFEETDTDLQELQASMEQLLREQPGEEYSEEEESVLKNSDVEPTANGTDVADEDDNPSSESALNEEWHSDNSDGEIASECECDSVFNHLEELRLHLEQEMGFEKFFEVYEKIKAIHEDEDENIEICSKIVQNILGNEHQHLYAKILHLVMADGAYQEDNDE
T26 sequence (Q14289 whole entry): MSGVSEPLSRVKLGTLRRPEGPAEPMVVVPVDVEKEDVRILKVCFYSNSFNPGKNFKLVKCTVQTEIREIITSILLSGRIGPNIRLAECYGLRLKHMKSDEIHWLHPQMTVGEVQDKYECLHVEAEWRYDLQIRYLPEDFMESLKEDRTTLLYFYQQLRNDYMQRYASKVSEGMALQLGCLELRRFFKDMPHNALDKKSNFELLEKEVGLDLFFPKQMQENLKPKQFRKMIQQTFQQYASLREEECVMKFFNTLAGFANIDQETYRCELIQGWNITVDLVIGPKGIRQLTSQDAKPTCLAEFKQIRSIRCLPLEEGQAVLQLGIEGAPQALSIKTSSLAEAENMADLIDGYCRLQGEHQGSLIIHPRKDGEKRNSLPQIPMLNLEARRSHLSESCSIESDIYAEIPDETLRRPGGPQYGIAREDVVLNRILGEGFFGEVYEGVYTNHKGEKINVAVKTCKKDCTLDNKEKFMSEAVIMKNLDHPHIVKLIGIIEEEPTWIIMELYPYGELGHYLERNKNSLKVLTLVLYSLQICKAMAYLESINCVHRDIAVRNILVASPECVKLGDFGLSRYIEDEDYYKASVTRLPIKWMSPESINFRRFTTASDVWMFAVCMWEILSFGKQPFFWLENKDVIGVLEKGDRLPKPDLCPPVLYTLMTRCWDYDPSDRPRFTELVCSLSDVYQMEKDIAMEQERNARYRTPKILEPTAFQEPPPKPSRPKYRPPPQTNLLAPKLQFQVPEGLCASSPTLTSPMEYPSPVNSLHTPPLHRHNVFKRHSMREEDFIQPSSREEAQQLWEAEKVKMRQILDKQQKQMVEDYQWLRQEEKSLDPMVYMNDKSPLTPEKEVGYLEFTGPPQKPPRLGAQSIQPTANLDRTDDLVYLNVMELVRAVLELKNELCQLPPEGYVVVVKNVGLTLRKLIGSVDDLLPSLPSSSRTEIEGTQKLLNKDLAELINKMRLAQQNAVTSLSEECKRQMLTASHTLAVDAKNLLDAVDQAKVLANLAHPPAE
T19 sequence (Q13043 whole entry): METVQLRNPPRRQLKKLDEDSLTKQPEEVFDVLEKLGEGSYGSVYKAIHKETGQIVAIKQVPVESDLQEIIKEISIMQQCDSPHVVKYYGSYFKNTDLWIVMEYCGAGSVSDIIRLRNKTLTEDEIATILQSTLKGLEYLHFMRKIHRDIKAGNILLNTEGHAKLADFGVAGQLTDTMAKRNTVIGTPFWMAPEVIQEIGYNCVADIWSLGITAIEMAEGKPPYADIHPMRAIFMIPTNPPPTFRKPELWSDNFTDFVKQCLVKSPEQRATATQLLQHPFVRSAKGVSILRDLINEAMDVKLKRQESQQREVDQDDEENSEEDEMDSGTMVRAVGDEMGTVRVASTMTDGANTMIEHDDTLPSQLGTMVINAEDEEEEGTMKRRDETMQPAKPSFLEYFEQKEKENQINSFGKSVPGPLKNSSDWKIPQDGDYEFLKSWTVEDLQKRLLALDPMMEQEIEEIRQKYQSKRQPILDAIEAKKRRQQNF
T17 sequence (P08581 25-1390 Y1235D): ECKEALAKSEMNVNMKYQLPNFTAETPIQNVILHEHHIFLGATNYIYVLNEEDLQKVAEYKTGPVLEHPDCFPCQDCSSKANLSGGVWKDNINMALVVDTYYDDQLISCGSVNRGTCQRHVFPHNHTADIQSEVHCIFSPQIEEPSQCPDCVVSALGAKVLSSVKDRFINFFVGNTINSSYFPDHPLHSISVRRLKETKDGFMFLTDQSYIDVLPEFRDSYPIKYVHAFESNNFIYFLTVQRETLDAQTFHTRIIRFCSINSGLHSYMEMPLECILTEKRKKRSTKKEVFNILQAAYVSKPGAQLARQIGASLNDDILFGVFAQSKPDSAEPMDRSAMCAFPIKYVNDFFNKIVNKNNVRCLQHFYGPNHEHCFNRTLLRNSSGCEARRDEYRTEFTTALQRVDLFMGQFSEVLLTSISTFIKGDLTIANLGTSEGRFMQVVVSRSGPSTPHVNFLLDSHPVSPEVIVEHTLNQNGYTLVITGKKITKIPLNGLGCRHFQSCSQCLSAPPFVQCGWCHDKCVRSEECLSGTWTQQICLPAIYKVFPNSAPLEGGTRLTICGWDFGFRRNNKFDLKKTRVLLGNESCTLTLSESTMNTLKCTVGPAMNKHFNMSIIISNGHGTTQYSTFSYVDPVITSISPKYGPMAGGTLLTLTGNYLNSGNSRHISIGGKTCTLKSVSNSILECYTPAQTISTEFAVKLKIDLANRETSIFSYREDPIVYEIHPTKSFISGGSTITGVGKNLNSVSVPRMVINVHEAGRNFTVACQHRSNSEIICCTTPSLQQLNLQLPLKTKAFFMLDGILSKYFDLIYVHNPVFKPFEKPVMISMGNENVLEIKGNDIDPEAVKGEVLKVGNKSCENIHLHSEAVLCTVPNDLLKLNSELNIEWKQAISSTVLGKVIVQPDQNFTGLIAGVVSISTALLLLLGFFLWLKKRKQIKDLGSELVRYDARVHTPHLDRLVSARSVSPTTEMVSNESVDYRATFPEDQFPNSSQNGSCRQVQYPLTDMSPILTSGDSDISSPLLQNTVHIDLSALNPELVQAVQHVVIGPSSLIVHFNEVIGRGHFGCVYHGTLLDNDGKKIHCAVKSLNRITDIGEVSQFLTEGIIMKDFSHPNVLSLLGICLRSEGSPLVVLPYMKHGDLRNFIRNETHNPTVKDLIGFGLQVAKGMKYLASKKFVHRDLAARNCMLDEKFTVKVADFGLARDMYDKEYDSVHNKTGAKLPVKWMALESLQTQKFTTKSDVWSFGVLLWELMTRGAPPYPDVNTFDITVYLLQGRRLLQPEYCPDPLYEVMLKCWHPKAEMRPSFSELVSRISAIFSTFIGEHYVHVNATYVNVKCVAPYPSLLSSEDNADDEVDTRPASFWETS
T22 sequence (Q8TDX7 whole entry): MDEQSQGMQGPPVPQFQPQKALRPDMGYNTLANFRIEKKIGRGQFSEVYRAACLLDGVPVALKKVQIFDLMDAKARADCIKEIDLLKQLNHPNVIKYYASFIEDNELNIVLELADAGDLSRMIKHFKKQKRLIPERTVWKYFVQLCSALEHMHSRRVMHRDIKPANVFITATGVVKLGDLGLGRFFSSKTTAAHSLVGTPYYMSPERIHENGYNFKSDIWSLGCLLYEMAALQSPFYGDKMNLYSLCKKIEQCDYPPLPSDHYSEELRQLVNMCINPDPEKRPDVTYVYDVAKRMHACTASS
T31 sequence (P36897 34-503): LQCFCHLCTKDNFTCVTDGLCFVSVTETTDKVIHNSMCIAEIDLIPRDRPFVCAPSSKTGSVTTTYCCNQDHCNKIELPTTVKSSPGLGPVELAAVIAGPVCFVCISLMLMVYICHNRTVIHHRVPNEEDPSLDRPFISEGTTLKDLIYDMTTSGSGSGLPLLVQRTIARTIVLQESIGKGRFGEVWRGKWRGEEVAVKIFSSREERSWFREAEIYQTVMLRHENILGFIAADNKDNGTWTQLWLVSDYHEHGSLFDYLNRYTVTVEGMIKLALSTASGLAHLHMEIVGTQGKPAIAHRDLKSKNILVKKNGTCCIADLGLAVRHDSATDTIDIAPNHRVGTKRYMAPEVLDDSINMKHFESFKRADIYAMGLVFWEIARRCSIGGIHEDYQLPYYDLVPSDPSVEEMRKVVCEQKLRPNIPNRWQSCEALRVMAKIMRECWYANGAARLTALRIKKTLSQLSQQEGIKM

CCCCN1CCN(C(=N)c2cccc(NC(=O)Nc3ccc(S(=O)(=O)NCc4ccc(S(N)(=O)=O)cc4)cc3)c2)CC1 [SC81458, 4-(3-(3-((4-butylpiperazin-1-yl)(imino)methyl)phenyl)ureido)-N-(4-sulfamoylbenzyl) benzenesulfonamide]
remaining binding at 10 µM (ABL1(Q252H)): 95% | remaining binding at 10 µM (ABL1(T315I)): 100% | remaining binding at 10 µM (ABL1(Y253F)): 92% | remaining binding at 10 µM (ACVR2b): 93% | remaining binding at 10 µM (CDC2L2): 100% | remaining binding at 10 µM (CDK7): 100% | remaining binding at 10 µM (CSNK1e): 100% | remaining binding at 10 µM (CTK): 100% | remaining binding at 10 µM (DAPK3): 100% | remaining binding at 10 µM (DCAMKL3): 62% | remaining binding at 10 µM (DYRK1a): 100% | remaining binding at 10 µM (DYRK1b): 87% | remaining binding at 10 µM (ERK3): 100% | remaining binding at 10 µM (FGFR1): 100% | remaining binding at 10 µM (INSRR): 95% | remaining binding at 10 µM [1]: 100% | remaining binding at 10 µM (MET(Y1235D)): 100% | remaining binding at 10 µM (MLK1): 64% | remaining binding at 10 µM (MST1): 100% | remaining binding at 10 µM (MYO3a): 100% | remaining binding at 10 µM (NEK1): 83% | remaining binding at 10 µM (NEK7): 95% | remaining binding at 10 µM (PDPK1): 74% | remaining binding at 10 µM (PIK3C2b): 98% | remaining binding at 10 µM (PIK3CA(M1043I)): 100% | remaining binding at 10 µM (PYK2): 98% | remaining binding at 10 µM [2]: 100% | remaining binding at 10 µM (SIK2): 100% | remaining binding at 10 µM (STK36): 100% | remaining binding at 10 µM (TAOK3): 100% | remaining binding at 10 µM (TGFBR1): 100% | remaining binding at 10 µM (VEGFR2): 84%
